The text below walks through data of US20100168033A1, “UNACYLATED GHRELIN AS THERAPEUTIC AGENT IN THE TREATMENT OF METABOLIC DISORDERS” (ALIZE PHARMA SAS, priority 2007, published 2010).

Entries after “also recorded” stand apart in the source; their conditions may differ. Like-named read-outs stand apart in the source and are kept apart here. No end group written: not given here.

The subject of experiment [1] is INS-1E β-cells. Description: MTT cell survival assay in INS-1E β-cells. The format is cell-based, rat. The settings on record: peptides 0.1 nM to 100 nM. Here is the method: The peptides were tested at increasing concentrations, ranging from 0.1 nM to 100 nM.
(§1) Cell culture—Hamster HIT-T15 insulin-secreting β-cells were obtained and cultured as described (Refs. 14, 4). INS-1E rat β-cells were kindly provided by Prof. Claes B. Wollheim (University Medical Center, Geneva, Switzerland) and cultured as described (Refs. 14, 4). Cell culture reagents were from Invitrogen (Milano, Italy). Cytokines were from Biosource (Invitrogen, Italy).
(§2) Cell survival assay—Cell survival was assessed by 3-[4,5-dimethylthiazol-2-yl]-2,5 diphenyltetrazolium bromide (MTT) as described previously (Ref. 4). Cells were seeded on 96-well plates at a density of 5×10^3 cells/well. After treatments, cells were incubated with 1 mg/ml MTT for ≈1 h. The medium was aspirated, and the formazan product solubilized with 100 μl DMSO. Viability was assessed by spectrophotometry at 570 nm absorbance using a 96-well plate reader.
On the technique in general: Tetrazolium assays rely on reduction of a dye to a coloured formazan, in cell work by metabolically active cells.

Experiment [2] deals with HIT-T15 β-cells. Type of experiment: cell-based. The protocol: MTT experiments were also performed in hamster HIT-T15 β-cells, to test the survival effect of UAG (1-28) or its fragments UAG (1-14), UAG (1-18), UAG (1-5) and UAG (17-28) in serum deprived medium, either alone or with IFN-γ/TNF-α/IL-1β. As for the experiments performed on INS-1E β-cells, the peptides were tested at increasing concentrations, ranging from 0.1 nM to 100 nM.
The survival effect of UAG (6-13), UAG (8-13), UAG (8-12), UAG (8-11), UAG (9-12) and UAG (9-11) was assessed in cytokine-treated HIT-T15 β-cells.
The protective effects of peptides UAG (8-13) and UAG (8-12) were found similar to those of UAG (1-14) and UAG (1-18) A peptide made of the inverse sequence of UAG (1-14) and named UAG (14-1), was used as negative control for these experiments (FIG. 5A). […] These effects were however lower than those of UAG (6-13) (FIG. 5B).
UAG fragments with alanine (Ala) substitutions at different amino acid positions (6 to 13) were tested with regards to their survival effects in HIT-T15 hamster β-cells. The cells were cultured in serum deprived medium, either alone or with IFN-γ/TNF-α/IL-1β. The peptides were tested at the concentrations of 1 nM to 100 nM. […] Under treatment with cytokines, where cell survival was reduced by ≈18% with respect to serum starved conditions, all Ala substitutions, except those at positions 10 and 11, completely reversed cell death and brought the survival rate to levels that were even higher than those under serum-free conditions, at both 1 nM and 100 nM concentrations. These effects, were similar to those elicited by the original peptide UAG (6-13) (FIG. 11B).
Particularly, the best effect was exerted by Gly 6-UAG (6-13), whereas the lowest was seen using AcSer 6-UAG (6-13), AcSer 6-(D)Pro 7-UAG (6-13) (FIG. 12B).
as §1, §2

Experiment [3] relates to human pancreatic islets. Briefly: MTT cell survival assay in human pancreatic islets. The format is cell-based. The settings on record: 1 nM to 100 nM. Here is the method: The survival effect of UAG (1-14), UAG (1-18), UAG (1-5) and UAG (17-28), with respect to that of full length UAG (1-28), was assessed in human pancreatic islets by MTT. The peptides were tested in islet cells cultured in serum deprived medium, either alone or with IFN-γ/TNF-α/IL-1β (5 ng/ml each).
Human islet isolation—Human islets were obtained from pancreases of multiorgan donors as described (Ref. 4). Islet preparations with purity >70%, not suitable for transplantation, were provided by European Consortium for Islet Transplantation (ECIT) “Islets for Research Distribution Program,” Transplant Unit, Scientific Institute San Raffaele, Vita-Salute University, Milan. Islets (10,000) were cultured in CMRL (Invitrogen) with 10% FBS.
as §2

For experiment [4], the system named is human pancreatic islets. Briefly: Insulin secretion in human pancreatic islets. The format is cell-based. Conditions: peptide 100 nM; glucose absent or 2 to 25 mM. The protocol:
The effects of UAG (1-14) and UAG (1-18), both used at 100 nM, were investigated on insulin secretion in human islets. […] UAG (1-28) and Exendin-4 were used as positive controls (FIGS. 8C and 8D).

Experiment [5] concerns HIT-T15 β-cells. Briefly: Insulin secretion in HIT-T15 β-cells. Type of experiment: cell-based, hamster. The settings on record: data not shown. The protocol:
Insulin secretion—HIT-T15 cells were plated at density of 5×10^5 cells into 100-mm dishes and serum starved for 24 h before incubation for 1 h at 37° C. in HEPES-buffered Krebs-Ringer bicarbonate buffer (KRBH), containing 0.5% BSA with 1.25 mM glucose. The medium was changed and the cells were incubated again for 1 h in KRBH/0.5% BSA containing 1.25, 7.5 or 15 mM glucose. Following acid ethanol extraction of the hormone, secreted insulin was quantitated by a radioimmunoassay kit (Linco Research, Labodia, Yens, Switzerland) which recognizes human insulin and cross reacts with rat insulin.

Experiment [6] has as its system UAG receptor on HIT-T15 pancreatic β-cells. Description: [125I-Tyr4]-UAG competition binding, HIT-T15 membranes. Details: species or system hamster. The settings on record: HIT-T15 cells. Here is the method:
(§3) The ability of the fragment UAG (6-13) to compete in a concentration-dependent manner with [^125I-Tyr^4]-UAG for HIT-T15 (FIG. 10A) and INS-1E (FIG. 10B) binding sites was assayed. As shown in FIGS. 10A and 10B, unlabelled UAG (1-28) and UAG (6-13) competed with a similar efficacy and in a concentration-dependent fashion with [^125I-Tyr^4]-UAG for such binding sites in both cell lines.
(§4) Binding assay—Membranes from hamster HIT-T15 and rat INS-1E to pancreatic β-cells were prepared and assayed for the presence of [^125I-Tyr^4]-UAG binding. The ability of UAG fragments to compete with the radioligand for such binding sites has been evaluated as previously described (Ref. 4). Data are presented as mean±S.E.M. of three independent experiments.

Experiment [7] relates to UAG receptor on INS-1E pancreatic β-cells. Briefly: [125I-Tyr4]-UAG competition binding, INS-1E membranes. The settings on record: INS-1E cells. Details: species or system rat. The protocol:
as §3, §4

Setting [8] is: serum deprived medium with IFN-γ/TNF-α/IL-1β.

Regarding GSSFLSPEHQRVQQ [UAG (1-14)], the “cell survival (MTT)” value in experiment [1] (setting [8]) is “more potent than full length UAG (1-28); also recorded: even stronger than native UAG”; in experiment [1] (serum-free medium) it was “significant survival effect, comparable to that of UAG (1-28)”; in experiment [2] (serum deprived medium alone) it was “significantly increased cell viability”; in experiment [2] (setting [8]), “significantly increased cell viability”; in experiment [3] (serum deprived medium alone), “significantly increased cell survival in serum deprived medium at 10 nM and 100 nM”; in experiment [3] (serum deprived medium with IFN-γ/TNF-α/IL-1β (5 ng/ml each)), “prevented cell death at 100 nM”. Moreover, the insulin secretion entry in experiment [4] was “significantly increased insulin secretion both in the absence and presence of glucose”. Besides, in experiment [5], the glucose-induced insulin secretion result is recorded as “significantly increased glucose-induced insulin secretion”. For the same substance, the “binding to the UAG receptor” value in experiment [6] is “recognized and bound to the UAG receptor”; in experiment [7], “recognized and bound to the UAG receptor”.

In the case of “exendin-4: positive control for insulin secretion, from Phoenix Pharmaceuticals [reference compound]”, the insulin secretion result in experiment [4] is “significantly increased insulin secretion both in the absence and presence of glucose”. The glucose-induced insulin secretion entry in experiment [5] is recorded as “significantly increased glucose-induced insulin secretion”.

On to GSSFLSPEHQRVQQRKES [UAG (1-18)], for which the “cell survival (MTT)” value in experiment [1] (setting [8]) is “more potent than full length UAG (1-28)”; in experiment [1] (serum-free medium), “significant survival effect, comparable to that of UAG (1-28)”; in experiment [2] (serum deprived medium alone), “significantly increased cell viability”; in experiment [2] (setting [8]) it was “significantly increased cell viability”; in experiment [3] (serum deprived medium alone), “significantly increased cell survival at 1 nM and 10 nM”. Also, the insulin secretion result in experiment [4] is given as “significant effect with 7.5 mM glucose”.
